Columns and labels:
Assay type in all cases: in vivo
GCase = test: FTI treatment of wild-type mice: GCase maturation and activity in cortex; conditions: daily i.p. 0.9 mg/kg, 14 days
Procedure: FIGS. 15A, 15B, 15C, 15D, 15E, and 15F. FTI treatment of wild-type mice enhances ykt6 SNARE complexes, lysosomal activity, and reduces a-syn. 15A) Wild-type mice (C57Bl/6) were i.p. injected daily with FTI for 14 days at 0.9 mg/kg and compared to vehicle injected mice. Extracts from the cortex were analyzed for cytosolic (cyt) and membrane (mem) distribution of ykt6 (veh, n=5; FTI, n=6). 15B) Representative gel filtration/western blot analysis of cortical extracts of veh or FTI injected wild-type mice. Inputs are shown on the left. NSE indicates equal column loading. 15C) Quantification of ykt6 and STX5 complexes (ca. 120A) from gel filtration analysis in C (n=4 mice). Fraction 1 corresponds to complexes at 120A, while fractions 7-9 correspond to ykt6 monomers at 22-14 A. 15D) The levels of post ER (endo H resistant) GCase were analyzed by western blot and post ER/ER ratios were quantified from the cortex of FTI treated mice (veh, n=5; FTI, n=6). 15E) GCase activity was assessed in cortical lysates and normalized to total protein (veh, n=4; FTI, n=6). 15F) a-Syn levels were quantified from cytosolic or membrane isolated fractions from the cortex of wild-type FTI treated mice (veh, n=4; FTI, n=6). For all quantifications, values are the mean+/−SEM, *p<0.05.
Analysis of post-ER GCase. […]

human A53T a-syn = test: FTI treatment of DASYN53 mice: soluble and insoluble a-syn in midbrain; conditions: i.p. 0.9 mg/kg, 26d
Source text: (§1) FIGS. 8A, 8B, 8C, 8D, 8E, and 8F. FTI treatment enhances GCase activity and reduces pathological a-syn in transgenic mice. 8A) GCase activity in the midbrain of FTI (LNK-754)-treated DASYN53 mice (treated as in FIG. 7) (n=4, veh; n=5, FTI). 8B & 8C) Quantification of soluble and insoluble a-syn from midbrains of FTI-treated DASYN53 mice normalized to total protein (CBB). Syn211 is selective for human (hu) a-syn; C20 and syn303 detect mouse (ms) and hu a-syn, (n=3, nTg+Veh; n=4, DASYN53+veh; n=5 DASYN53+FTI). 8D) Midbrain TH levels were quantified by western blot of FTI-treated DASYN53 mice (n=3). 8E) Body weight of FTI-treated DASYN53 mice (n=9, nTg+Veh; n=7, DASYN53+veh; n=7 DASYN53+FTI). 8F) Rotarod test of FTI-treated DASYN53 mice (n=12, nTg+Veh; n=7, DASYN53+veh; n=7 DASYN53+FTI). Values are the mean+/−SEM. *p<0.05, **p<0.01, and *** p<0.001. Student's t-test, panel A; ANOVA with Tukey's posthoc test, panels B-F.
Sequential biochemical extraction for the analysis of pathological a-synuclein. Cells were harvested in phosphate buffered saline (PBS), pH 7.4, and pelleted by centrifugation at 400×g for 5 minutes. […] Protein concentration was measured by BCA assay (Pierce). […]

TH protein = test: FTI treatment of DASYN53 mice: midbrain TH levels; conditions: i.p. 0.9 mg/kg, 26d
Source text: as §1
Treatment of C57Bl/6 and DASYN53 mice with farnesyltransferase inhibitors. 3 mo old C57BL6 mice were i.p. injected daily with 0.9 mg/kg LNK-754 that was formulated in a vehicle of 0.5% sodium carboxymethylcellulose and filtered before use for 14 days. DASYN53 mice were i.p. injected daily with 0.9 mg/kg LNK-754 as above. Mice were perfused with PBS and the brains (cortex) were rapidly dissected and frozen until analysis. […]

ykt6 = test: Ykt6 in red blood cells of FTI-treated mice; conditions: WT mice
Source text: FIG. 20. Ykt6 in red blood cells of human and mice. A) Fractionation of RBCs/western blot of ykt6. Markers indicate efficient separation of cytosol (GAPDH) and membrane (Ank, Ankyrin-1). […] B) Ykt6 from RBCs of nTg of symptomatic 12 mo old A53T mice (ref 12) (n=3-5).
(See FIG. 20A). […] (See FIG. 20C).

C#Cc1cccc(-c2cc(=O)n(C)c3ccc([C@](O)(c4ccc(Cl)cc4)c4cncn4C)cc23)c1 [LNK-754]
mature, endo H resistant GCase in brain (GCase; cortex): elevated levels | GCase enzyme activity in brain (GCase; cortical lysates): higher enzyme activity | soluble and insoluble A53T a-syn in midbrain extracts (human A53T a-syn): reduce soluble and insoluble A53T a-syn | TH levels in midbrain (TH protein): partially restore TH levels | membrane Ykt6 in red blood cells (ykt6): increases membrane Ykt6 | membrane Ykt6 in red blood cells (ykt6; listed as FTI): activation of ykt6 in red blood cells

Source: patent US12226410B2, “Methods for enhancing cellular clearance of pathological molecules via activation of the cellular protein ykt6” (NORTHWESTERN UNIVERSITY, priority 2019, dated 2025)
